The target of test [1] is T1, Tyrosine-protein phosphatase non-receptor type 22 (Homo sapiens, UniProt Q9Y2R2).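 Further: confirmatory dose-response retest of primary uHTS hits for inhibition of LYP phosphatase, measured by a fluorescence intensity read-out.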
T1 sequence (Q9Y2R2 whole entry): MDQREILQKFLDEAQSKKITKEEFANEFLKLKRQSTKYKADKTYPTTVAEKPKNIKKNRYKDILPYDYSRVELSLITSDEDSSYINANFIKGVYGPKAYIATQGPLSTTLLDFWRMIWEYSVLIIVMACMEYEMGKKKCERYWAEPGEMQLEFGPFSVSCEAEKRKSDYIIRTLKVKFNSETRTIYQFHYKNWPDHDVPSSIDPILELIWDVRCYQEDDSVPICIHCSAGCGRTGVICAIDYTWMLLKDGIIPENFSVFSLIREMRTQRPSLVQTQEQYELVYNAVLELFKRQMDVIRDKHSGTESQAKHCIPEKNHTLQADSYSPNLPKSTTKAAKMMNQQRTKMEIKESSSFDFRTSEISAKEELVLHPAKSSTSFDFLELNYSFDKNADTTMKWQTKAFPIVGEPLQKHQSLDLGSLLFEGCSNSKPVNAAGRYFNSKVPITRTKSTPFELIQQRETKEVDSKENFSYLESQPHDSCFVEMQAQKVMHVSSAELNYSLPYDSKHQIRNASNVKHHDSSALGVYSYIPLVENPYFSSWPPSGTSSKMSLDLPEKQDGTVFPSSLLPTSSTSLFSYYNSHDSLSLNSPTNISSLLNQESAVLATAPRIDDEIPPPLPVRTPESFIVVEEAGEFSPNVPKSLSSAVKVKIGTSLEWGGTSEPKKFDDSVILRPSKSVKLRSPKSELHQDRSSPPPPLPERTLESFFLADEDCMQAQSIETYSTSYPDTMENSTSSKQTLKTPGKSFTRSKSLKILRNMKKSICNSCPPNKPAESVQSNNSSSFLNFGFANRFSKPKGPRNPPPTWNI
Format: functional.

The target of test [2] is T2, Long-chain-fatty-acid--AMP ligase FadD28 (Mycobacterium tuberculosis, UniProt P9WQ59).
T2 sequence (P9WQ59 whole entry): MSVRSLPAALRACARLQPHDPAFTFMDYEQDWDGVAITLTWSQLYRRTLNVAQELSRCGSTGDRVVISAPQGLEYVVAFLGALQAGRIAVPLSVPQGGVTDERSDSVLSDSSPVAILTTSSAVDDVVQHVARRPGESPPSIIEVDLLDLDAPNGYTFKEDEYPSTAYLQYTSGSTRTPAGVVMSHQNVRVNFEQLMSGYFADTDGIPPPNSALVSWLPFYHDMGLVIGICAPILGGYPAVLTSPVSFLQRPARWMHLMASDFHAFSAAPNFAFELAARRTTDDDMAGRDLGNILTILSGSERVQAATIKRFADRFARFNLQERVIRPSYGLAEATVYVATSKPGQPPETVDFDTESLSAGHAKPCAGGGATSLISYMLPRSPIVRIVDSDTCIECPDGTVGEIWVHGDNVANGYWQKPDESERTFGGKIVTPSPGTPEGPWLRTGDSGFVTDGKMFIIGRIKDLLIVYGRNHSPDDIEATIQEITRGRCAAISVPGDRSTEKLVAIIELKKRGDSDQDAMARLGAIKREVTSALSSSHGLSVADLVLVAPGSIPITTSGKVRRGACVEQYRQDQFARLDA
In words: Fluorescence polarization aasay to screen for inhibitors that compete for the binding of FadD28 to a bisubstrate Measured in Biochemical System Using Plate Reader - 2147-01_Inhibitor_Dose_CherryPick_Activity. Format: functional, Mycobacterium tuberculosis H37Rv. For orientation: Fluorescence polarisation rises when a labelled molecule tumbles more slowly, as on binding a larger partner.

The target of test [3] is T3, Tyrosine-protein phosphatase non-receptor type 7 (Homo sapiens, UniProt P35236).
T3 sequence (P35236 whole entry): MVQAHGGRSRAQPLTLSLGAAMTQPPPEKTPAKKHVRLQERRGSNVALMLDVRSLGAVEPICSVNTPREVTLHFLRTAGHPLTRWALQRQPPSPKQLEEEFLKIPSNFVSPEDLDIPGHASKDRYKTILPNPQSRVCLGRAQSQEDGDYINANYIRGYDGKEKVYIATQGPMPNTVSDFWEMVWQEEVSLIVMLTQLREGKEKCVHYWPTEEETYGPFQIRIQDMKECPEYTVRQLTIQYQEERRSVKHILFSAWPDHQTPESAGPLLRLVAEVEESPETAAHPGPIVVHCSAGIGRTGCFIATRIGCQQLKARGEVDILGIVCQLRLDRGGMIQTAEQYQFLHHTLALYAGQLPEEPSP
The test is classed as functional.

Test [4] concerns the target T4, Replicative DNA helicase DnaB (Mycobacterium tuberculosis, UniProt P9WMR3).
T4 sequence (P9WMR3 whole entry): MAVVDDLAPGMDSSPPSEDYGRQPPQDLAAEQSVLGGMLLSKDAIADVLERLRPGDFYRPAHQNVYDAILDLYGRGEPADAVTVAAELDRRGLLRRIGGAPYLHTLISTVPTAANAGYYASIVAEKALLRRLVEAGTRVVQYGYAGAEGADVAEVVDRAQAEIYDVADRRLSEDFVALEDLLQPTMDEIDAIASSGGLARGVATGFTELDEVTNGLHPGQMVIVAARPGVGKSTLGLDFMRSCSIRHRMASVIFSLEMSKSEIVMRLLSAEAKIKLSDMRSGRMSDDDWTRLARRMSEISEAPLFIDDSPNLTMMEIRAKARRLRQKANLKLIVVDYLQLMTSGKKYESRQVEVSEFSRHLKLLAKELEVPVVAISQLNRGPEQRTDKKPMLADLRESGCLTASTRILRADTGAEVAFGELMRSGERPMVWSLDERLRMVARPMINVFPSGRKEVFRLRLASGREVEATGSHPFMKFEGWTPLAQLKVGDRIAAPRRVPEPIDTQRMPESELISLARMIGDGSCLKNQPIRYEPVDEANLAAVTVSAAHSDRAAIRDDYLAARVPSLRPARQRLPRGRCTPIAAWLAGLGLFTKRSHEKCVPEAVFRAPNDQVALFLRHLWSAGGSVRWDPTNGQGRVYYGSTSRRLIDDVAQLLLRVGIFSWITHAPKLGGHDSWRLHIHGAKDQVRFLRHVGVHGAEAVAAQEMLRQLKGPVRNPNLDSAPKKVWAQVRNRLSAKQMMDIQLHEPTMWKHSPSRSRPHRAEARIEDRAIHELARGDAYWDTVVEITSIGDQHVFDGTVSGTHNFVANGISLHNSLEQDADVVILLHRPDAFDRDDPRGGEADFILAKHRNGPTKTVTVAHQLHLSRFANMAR
In words: DnaB intein splicing inhibitors, dose response, biochemical, cell-free fluorescence (AID 449749). The test is classed as functional.

Test [5] addresses T5, Sentrin-specific protease 8 (Homo sapiens, UniProt Q96LD8).
T5 sequence (Q96LD8 whole entry): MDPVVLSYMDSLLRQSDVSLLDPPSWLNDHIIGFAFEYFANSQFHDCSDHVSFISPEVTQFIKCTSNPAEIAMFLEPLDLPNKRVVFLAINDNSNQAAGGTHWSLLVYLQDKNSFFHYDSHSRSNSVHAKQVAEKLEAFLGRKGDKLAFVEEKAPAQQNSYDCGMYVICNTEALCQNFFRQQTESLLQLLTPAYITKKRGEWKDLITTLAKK
The test is classed as functional.

Calls of active or inactive are those of the source.

Take `Nc1ccc2nc3c(O)nc(S)nc3nc2c1`: the IC50 in test [1] and in test [3] was > 79.4 µM (inactive) each time. The AC50 – broadly, the concentration giving half of the maximal activity seen – in test [2] is 46.1 µM (active).

As for `O=C1CCCC2=C1C1(O)C(=O)c3ccccc3C1(O)O2` (stereo not given), the AC50 in test [4] is 5.49 µM (active). For the same molecule, in test [5], the IC50 (in general, the concentration at which inhibition is half-maximal) is 6.65 µM (active).

As for `O=C1C(Cl)=C(NCCN2CCCCC2)C(=O)c2ccccc21`, the AC50 in test [4] was 14 µM (active).

In the case of `O=C(O)COc1ccc(/C=N/NC(=O)c2ccc(-c3csc(Nc4ccc(Cl)cc4)n3)cc2)cc1`, the 50% inhibitory concentration (IC50) in test [1] and in test [3] was < 1.24 µM (active) in each case.

As for `COc1cc(NCCCNC(C)C)c2nccc(C)c2c1`, the IC50 in test [5] is 1.09 µM (active).

With `CC(/C=C1\SC(=S)N(NS(=O)(=O)c2ccccc2)C1=O)=C\c1ccccc1`, the AC50 in test [2] is > 100 µM (inactive).

These data come from ChEMBL document CHEMBL1201862, “PubChem BioAssay data set” (2004).
